Laboratory results as given in patent US4894458A, “Quinolonecarboxylic acid derivatives and their preparation” (Kyorin Pharmaceutical Co., Ltd., priority 1986, dated 1990).
In brackets after ≈: the same amount, converted by molar mass. Where two headings read alike, the source gives them in different places.

Tests used:
[1] = system: gram-negative and gram-positive bacteria; conditions: gram-negative bacteria including Pseudomonas aeruginosa and gram-positive bacteria; cited from earlier work
[2] = system: B. distasonis 8503; assay: In vitro antibacterial activity (anaerobic bacteria), MIC; format: cell-based; conditions: Parabacteroides distasonis, Gram -, 10^6 cells/ml, read-out: MIC
[3] = system: Alcaligenes faecalis 0114002; assay: In vitro antibacterial activity (aerobic bacteria), MIC; format: cell-based; conditions: Alcaligenes faecalis, 0114002, aerobic, Gram -, 10^6 cells/ml
[4] = system: Fusobacterium necrophorum S-45; assay: In vitro antibacterial activity (anaerobic bacteria), MIC; format: cell-based
[5] = system: Peptostreptococcus anaerobius KYA 27337; assay: as above; format: cell-based
[6] = system: Propionibacterium acens 11828; assay: as above; format: cell-based; conditions: anaerobic, Gram +, 10^6 cells/ml, read-out: MIC
[7] = system: Bacillus subtilis PCI 219; assay: In vitro antibacterial activity (aerobic bacteria), MIC; format: cell-based
[8] = system: Veillonella parvula KYA 10790; assay: In vitro antibacterial activity (anaerobic bacteria), MIC; format: cell-based
[9] = system: Klebsiella pneumoniae KY(GN)6445; assay: In vitro antibacterial activity (aerobic bacteria), MIC; format: cell-based
[10] = system: P. aeruginosa IID 1210; assay: as above; format: cell-based; conditions: Pseudomonas aeruginosa, IID1210, aerobic, Gram -, 10^6 cells/ml
[11] = system: Salmonella enteritidis IID 604; assay: as above; format: cell-based; conditions: Salmonella enterica
[12] = system: Peptococcus magnus KY 017; assay: In vitro antibacterial activity (anaerobic bacteria), MIC; format: cell-based; conditions: Finegoldia magna, KY017, Gram +, 10^6 cells/ml, read-out: MIC
Method: (§1) Minimal inhibitory concentrations (MICs) were determined in accordance with the method recommended by Japan Society of Chemotherapy.

[13] = system: Eubacterium lentum GAI 5242; assay: as above; format: cell-based; conditions: Eggerthella lenta, GAI5242
[14] = system: Bacteroides fragilis GM 7000; assay: as above; format: cell-based
[15] = system: Clostridium difficile I-E; assay: as above; format: cell-based; conditions: Clostridioides difficile
[16] = system: B. fragilis 0558; assay: as above; format: cell-based; conditions: Bacteroides fragilis
[17] = system: Pst micros UPI 5464-1; assay: microbe, parasite or virus in culture; format: cell-based; conditions: anaerobic, Gram +, 10^6 cells/ml
[18] = system: C. perfringens KYA 13123; assay: microbe, parasite or virus in culture; format: cell-based; conditions: Clostridium perfringens, KYA13123
[19] = system: Yersinia enterocolitica IID 981; assay: microbe, parasite or virus in culture; format: cell-based; conditions: IID981
[20] = system: Escherichia coli NIHJ JC-2; assay: In vitro antibacterial activity (aerobic bacteria), MIC; format: cell-based; conditions: NIHJJC2, aerobic, Gram -, 10^6 cells/ml, read-out: MIC
[21] = system: C. ramosum; assay: In vitro antibacterial activity (anaerobic bacteria), MIC; format: cell-based; conditions: Thomasclavelia ramosa
[22] = system: Proteus vulgaris IFO 3167; assay: In vitro antibacterial activity (aerobic bacteria), MIC; format: cell-based; conditions: IFO3167, Gram -, 10^6 cells/ml
Method: as §1

[23] = system: Staphylococcus aureus 209 P; assay: as above; format: cell-based; conditions: Gram +, 10^6 cells/ml
Method: as §1

[24] = system: K. pneumoniae 1-220S; assay: as above; format: cell-based; conditions: Klebsiella pneumoniae, 1220S, Gram -, 10^6 cells/ml
Method: as §1

[25] = system: E. coli ATCC 10536; assay: as above; format: cell-based; conditions: Escherichia coli, ATCC10536, Gram -, 10^6 cells/ml
Method: as §1

[26] = system: Shigella sonnei IID 969; assay: as above; format: cell-based; conditions: IID969, Gram -, 10^6 cells/ml
Method: as §1

[27] = system: Pseudomonas aeruginosa V-1; assay: as above; format: cell-based; conditions: Pseudomonas aeruginosa, V1, aerobic; Gram -; 10^6 cells/ml; read-out: MIC
Method: as §1

[28] = system: Morganella morganii IID 602; assay: as above; format: cell-based; conditions: Morganella morganii, IID602, Gram -, 10^6 cells/ml, read-out: MIC
Method: as §1

[29] = system: Acinetobacter anitratus IID 876; assay: as above; format: cell-based; conditions: Acinetobacter calcoaceticus, IID876, Gram -, 10^6 cells/ml, read-out: MIC
Method: as §1

[30] = system: S. aureus IID 670 (Terajima); assay: as above; format: cell-based; conditions: Staphylococcus aureus, IID670, Gram +, 10^6 cells/ml
Method: as §1

[31] = system: P. mirabilis IID 994; assay: as above; format: cell-based; conditions: Proteus mirabilis, IID994, Gram -, 10^6 cells/ml
Method: as §1

[32] = system: S. epidermidis IID 866; assay: as above; format: cell-based; conditions: Staphylococcus epidermidis, IID866, Gram +, 10^6 cells/ml
Method: as §1

[33] = system: Serratia marcescens IID 618; assay: as above; format: cell-based; conditions: IID618, Gram -, 10^6 cells/ml
Method: as §1

[34] = system: Enterobacter cloacae IID 977; assay: as above; format: cell-based
[35] = system: P. aeruginosa IFO 12689; assay: as above; format: cell-based; conditions: Pseudomonas aeruginosa, IFO12689
[36] = system: Citrobacter freundii IID 976; assay: as above; format: cell-based; conditions: Citrobacter freundii
[37] = system: P. maltophilia GIFU 2491; assay: as above; format: cell-based; conditions: Stenotrophomonas maltophilia, GIFU2491
[38] = system: B. fragilis 25285; assay: In vitro antibacterial activity (anaerobic bacteria), MIC; format: cell-based; conditions: Bacteroides fragilis
[39] = system: B. thetaiotaomicron (0661); assay: as above; format: cell-based; conditions: Bacteroides thetaiotaomicron; anaerobic; Gram -; 10^6 cells/ml; read-out: MIC
[40] = system: F. varium KYA 8501; assay: as above; format: cell-based; conditions: Fusobacterium varium, KYA8501
[41] = system: P. cepacia GIFU 518; assay: In vitro antibacterial activity (aerobic bacteria), MIC; format: cell-based; conditions: Burkholderia cepacia, GIFU518, aerobic, Gram -, 10^6 cells/ml
[42] = aerobic, Gram -, 10^6 cells/ml, read-out: MIC
[43] = anaerobic, Gram +, 10^6 cells/ml, read-out: MIC
[44] = anaerobic, Gram -, 10^6 cells/ml, read-out: MIC

SMILES: CCn1cc(C(=O)O)c(=O)c2cc(F)c(N3CCNCC3)cc21 [norfloxacin]
- antibacterial activity [1]: high antibacterial activity

SMILES: Cc1c(N2CCC(N)C2)c(F)cc2c(=O)c(C(=O)O)cn(C3CC3)c12 (stereo not drawn) [Exp. 18, 7-(3-Amino-1-pyrrolidinyl)-1-cyclopropyl-6-fluoro-1,4-dihydro-8-methyl-4-oxo-3-quinolinecarboxylic acid]
- MIC [2]: 0.39 µg/mL (≈ 1.13 µM)
- MIC ([3]; read-out: MIC): 0.1 µg/mL (≈ 0.29 µM)
- MIC ([4]; S45, anaerobic, Gram -, 10^6 cells/ml, read-out: MIC): 0.1 µg/mL (≈ 0.29 µM)
- MIC ([5]; KYA27337, anaerobic, Gram +, 10^6 cells/ml, read-out: MIC): 0.1 µg/mL (≈ 0.29 µM)
- MIC [6]: 0.78 µg/mL (≈ 2.26 µM)
- MIC ([7]; PCI219, aerobic, Gram +, 10^6 cells/ml, read-out: MIC): 0.025 µg/mL (≈ 0.0724 µM)
- MIC ([8]; KYA10790, anaerobic, Gram -, 10^6 cells/ml, read-out: MIC): 0.1 µg/mL (≈ 0.29 µM)
- MIC [9, 42]: 0.025 µg/mL (≈ 0.0724 µM)
- MIC ([10]; read-out: MIC): 0.2 µg/mL (≈ 0.579 µM)
- MIC [11, 42]: 0.025 µg/mL (≈ 0.0724 µM)
- MIC [12]: 0.05 µg/mL (≈ 0.145 µM)
- MIC [13, 43]: 0.2 µg/mL (≈ 0.579 µM)
- MIC ([14]; GM7000, anaerobic, Gram -, 10^6 cells/ml, read-out: MIC): 0.2 µg/mL (≈ 0.579 µM)
- MIC [15, 43]: 0.78 µg/mL (≈ 2.26 µM)
- MIC [16, 44]: 0.1 µg/mL (≈ 0.29 µM)
- MIC ([17]; read-out: MIC): 0.1 µg/mL (≈ 0.29 µM)
- MIC [18]: 0.05 µg/mL (≈ 0.145 µM)
- MIC [19]: 0.05 µg/mL (≈ 0.145 µM)
- MIC [20]: ≤ 0.0032 µg/mL
- MIC [21]: 1.56 µg/mL (≈ 4.52 µM)
- MIC [22]: 0.0125 µg/mL (≈ 0.0362 µM)
- MIC [23]: 0.05 µg/mL (≈ 0.145 µM)
- MIC [24]: 0.05 µg/mL (≈ 0.145 µM)
- MIC [25]: 0.0125 µg/mL (≈ 0.0362 µM)
- MIC [26]: 0.0125 µg/mL (≈ 0.0362 µM)
- MIC [27]: 0.05 µg/mL (≈ 0.145 µM)
- MIC [28]: 0.05 µg/mL (≈ 0.145 µM)
- MIC [29]: 0.05 µg/mL (≈ 0.145 µM)
- MIC [30]: 0.05 µg/mL (≈ 0.145 µM)
- MIC [31]: 0.0125 µg/mL (≈ 0.0362 µM)
- MIC [32]: 0.05 µg/mL (≈ 0.145 µM)
- MIC [33]: 0.05 µg/mL (≈ 0.145 µM)
- MIC ([34]; IID977, aerobic, Gram -, 10^6 cells/ml, read-out: MIC): 0.025 µg/mL (≈ 0.0724 µM)
- MIC [35, 42]: 0.2 µg/mL (≈ 0.579 µM)
- MIC ([36]; IID976, aerobic, Gram -, 10^6 cells/ml, read-out: MIC): 0.025 µg/mL (≈ 0.0724 µM)
- MIC [37, 42]: 0.1 µg/mL (≈ 0.29 µM)
- MIC [38, 44]: 0.2 µg/mL (≈ 0.579 µM)
- MIC [39]: 0.78 µg/mL (≈ 2.26 µM)
- MIC [40, 44]: 0.78 µg/mL (≈ 2.26 µM)
- MIC ([41]; read-out: MIC): 0.2 µg/mL (≈ 0.579 µM)

SMILES: Cc1c(N2CCNCC2)c(F)cc2c(=O)c(C(=O)O)cn(C3CC3)c12 [Exp. 19, 1-Cyclopropyl-6-fluoro-1,4-dihydro-8-methyl-4-oxo-7-(1-piperazinyl)-3-quinolinecarboxylic acid]
- MIC [2]: 1.56 µg/mL (≈ 4.52 µM)
- MIC [3]: 0.39 µg/mL (≈ 1.13 µM)
- MIC ([4]; S45): 0.39 µg/mL (≈ 1.13 µM)
- MIC ([5]; KYA27337): 0.78 µg/mL (≈ 2.26 µM)
- MIC [6]: 6.25 µg/mL (≈ 18.1 µM)
- MIC ([7]; PCI219): 0.05 µg/mL (≈ 0.145 µM)
- MIC ([8]; KYA10790): 0.39 µg/mL (≈ 1.13 µM)
- MIC [9]: 0.05 µg/mL (≈ 0.145 µM)
- MIC [10]: 0.78 µg/mL (≈ 2.26 µM)
- MIC [11]: 0.05 µg/mL (≈ 0.145 µM)
- MIC [12]: 0.39 µg/mL (≈ 1.13 µM)
- MIC [13]: 0.2 µg/mL (≈ 0.579 µM)
- MIC ([14]; GM7000): 0.78 µg/mL (≈ 2.26 µM)
- MIC [15]: 3.13 µg/mL (≈ 9.06 µM)
- MIC [16]: 0.39 µg/mL (≈ 1.13 µM)
- MIC [17]: 0.39 µg/mL (≈ 1.13 µM)
- MIC [18]: 0.2 µg/mL (≈ 0.579 µM)
- MIC [19]: 0.05 µg/mL (≈ 0.145 µM)
- MIC [20]: 0.125 µg/mL (≈ 0.362 µM)
- MIC [21, 43]: 6.25 µg/mL (≈ 18.1 µM)
- MIC [22]: 0.025 µg/mL (≈ 0.0724 µM)
- MIC [23]: 0.2 µg/mL (≈ 0.579 µM)
- MIC [24]: 0.05 µg/mL (≈ 0.145 µM)
- MIC [25]: 0.05 µg/mL (≈ 0.145 µM)
- MIC [26]: 0.025 µg/mL (≈ 0.0724 µM)
- MIC [27]: 0.1 µg/mL (≈ 0.29 µM)
- MIC [28]: 0.1 µg/mL (≈ 0.29 µM)
- MIC [29]: 0.2 µg/mL (≈ 0.579 µM)
- MIC [30]: 0.2 µg/mL (≈ 0.579 µM)
- MIC [31]: 0.025 µg/mL (≈ 0.0724 µM)
- MIC [32]: 0.2 µg/mL (≈ 0.579 µM)
- MIC [33]: 0.05 µg/mL (≈ 0.145 µM)
- MIC ([34]; IID977): 0.05 µg/mL (≈ 0.145 µM)
- MIC [35]: 0.78 µg/mL (≈ 2.26 µM)
- MIC ([36]; IID976): 0.05 µg/mL (≈ 0.145 µM)
- MIC [37]: 0.39 µg/mL (≈ 1.13 µM)
- MIC [38]: 0.78 µg/mL (≈ 2.26 µM)
- MIC [39]: 6.25 µg/mL (≈ 18.1 µM)
- MIC [40]: 3.13 µg/mL (≈ 9.06 µM)
- MIC [41]: 0.78 µg/mL (≈ 2.26 µM)
